According to patent publication US20220340566A1, “BENZYL AMINE-CONTAINING 5,6-HETEROAROMATIC COMPOUNDS USEFUL AGAINST MYCOBACTERIAL INFECTION” (priority 2019, published 2022):
Like-named read-outs stand apart in the source and are kept apart here.

Columns and labels:
[1] = test system: Mycobacterium avium ATCC700898; assay: Determination of IC85 against M. avium (resazurin fluorescence); format: cell-based; conditions: Mycobacterium avium
[2] = Metabolic stability test in pooled human liver microsomes; format: in vitro ADME; conditions: human liver microsomes 0.5 mg protein/mL, 1 mmol/L NADPH, 37° C., 30 minutes
Procedure, shortened: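 Remaining-rate readout: parent compound left after 30 min versus 0 min (set as 100%), measured by LC/MS/MS or SPE/MS. Oxidative reaction ran at 37° C. with 1 mmol/L NADPH, 0.5 mg protein/mL pooled human microsomes, 50 mmol/L Tris-HCl pH 7.4 buffer.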

[3] = ATCC700898, M. avium ATCC700898, CAMHB medium, 37° C., 3 days incubation then resazurin, fluorescence one day later, read-out: IC85

Structure (SMILES)	IC85 [1, 3] [µM]	MS_h_% (remaining amount of compound after reaction, 0 minute = 100%) [2] [%]	IC85 ([1]; ATCC700898) [µM]
Cc1ccn2c(C(=O)NCc3ccc(C4CCN(C5CN(CC(F)(F)F)C5)CC4)c(F)c3)c(C)nc2c1 [Compound I-3-34]	0.61	71.9	–
[2H]c1c(C([2H])([2H])[2H])c([2H])n2c(C(=O)NCc3ccc(S(F)(F)(F)(F)F)cc3)c(C)nc2c1[2H] [Compound I-3-35]	0.11	71.3	–
CCc1nc2cc(F)ccn2c1C(=O)NCc1ccc(-n2cc3c(n2)CN(c2ccc(OC(F)(F)F)cc2)C3)c(F)c1.Cl [Compound I-3-36]	0.2	69	–
Cc1nc2ccc(Br)cn2c1C(=O)NCc1ccc(N2CCC(c3ccc(F)cc3)CC2)cc1 [Compound I-3-37]	0.016	68	–
CC1=CN2C(=NC(C)C2C(=O)NCc2ccc3c(c2)OCCO3)C=C1 (stereo not shown) [Compound I-3-38]	0.86	67.7	–
[2H]c1c(C([2H])([2H])[2H])c([2H])n2c(C(=O)NCc3cc(F)ccc3F)c(C)nc2c1[2H] [Compound I-3-39]	0.8	67.2	–
CCc1nc2cc(C)ccn2c1C(=O)NCc1ccc(Oc2cccc(C(F)(F)F)c2)cc1 [Compound I-3-40]	0.59	66	–
Cl.O=C(NCc1ccc(OC2CCC(Oc3ccc(OC(F)(F)F)cc3)CC2)c(F)c1)c1cnc2ccc(Cl)cn12 (stereo not shown) [Compound I-3-41]	0.15	65.4	–
Cc1ccn2c(C(=O)NCc3ccc(N4CCN(CC(F)F)CC4)c(F)c3)cnc2c1 [Compound I-3-42]	0.93	64.6	–
Cc1cn2c(C(=O)NCc3ccc(N4CC5(CCN(c6ccc(C(F)(F)F)cc6)CC5)C4)c(F)c3)c(C)nc2s1 [Compound I-3-43]	0.15	64.1	–
Cc1ccc2nc(C)c(C(=O)NCc3ccc(S(F)(F)(F)(F)F)cc3)n2c1 [Compound I-3-44]	0.11	63.9	–
CCc1nc2ccc(Cl)cn2c1C(=O)NCc1ccc(-n2cc3c(n2)CN(c2ccc(OC(F)(F)F)cc2)C3)c(F)c1.Cc1ccc(S(=O)(=O)O)cc1 [Compound I-3-45]	–	63.2	0.0046
Cc1cn2c(C(=O)NCc3ccc(Oc4cccc(C(F)(F)F)c4)cc3)c(C)nc2s1 [Compound I-3-46]	0.61	63.1	–
CCc1nc2ccc(Cl)cn2c1C(=O)NCc1ccc(-n2cc3c(n2)CN(c2ccc(OC(F)(F)F)cc2)C3)c(F)c1.Cl [Compound I-3-47]	0.0051	62	–
Cc1nc2cnccn2c1C(=O)NCc1ccc(N2CCN(c3ccc(OC(F)(F)F)cc3)CC2)c(F)c1 [Compound I-3-48]	0.66	60.4	–
Cc1ccn2c(C(=O)NCc3ccc(O[C@H]4CCN(c5ccc(OC(F)(F)F)cc5)C4)c(F)c3)c(C)nc2c1 [Compound I-3-49]	0.5	60.2	–
COc1ccn2nc(C)c(C(=O)NCc3ccc(N4CCN(c5ccc(OC(F)(F)F)cc5)[C@@H](C)C4)cc3)c2c1 [Compound I-3-50]	0.0058	58.5	–
